Patent publication US10907212B2, “Inhibitors of cell adhesion” (Regents of the University of Minnesota, priority 2016, dated 2021)
Where no end group is shown, it is not given here.

Columns and labels:
[1] = system: nectin 4 protein on NIH:OVCAR-5 cells; experiment: Effect of peptides on anti-Nectin-4 antibody binding to cells as determined by flow cytometry; assay type: cell-based, human; conditions: for IgG MFI: IgG control primary antibody; for nectin-4 antibody binding compared to untreated control cells (in words): flow cytometry; for Flow binding: summary table, Nectin-4 antibody binding relative to control = 100
Description: Confluent monolayers of cells were detached from 75 cm^2 tissue culture flasks using Accutase cell dissociation buffer (Innovative Cell Technologies, San Diego, Calif.), washed, and labeled with mouse IgG or mAbs against Nectin-4 or Nectin-1 (2.5 μg/10^6 cells) in Flow Buffer [phosphate buffered saline (PBS) containing 2.5% newborn calf serum and 0.02% sodium azide] for 30 min at 4° C.. Cells were washed and incubated with goat anti-mouse IgG F(ab′)2 (Jackson ImmunoResearch, West Grove, Pa.), then washed again and incubated with streptavidin-allophycocyanin conjugate (Jackson ImmunoResearch, West Grove, Pa.) for 30 min each. Cells were washed and fixed in Flow Buffer containing 1% formaldehyde and analyzed in the University of Minnesota Flow Cytometry Resource with a BD Accuri™ C6 flow cytometer (BD Biosciences, San Jose, Calif.) using the Accuri™ software.
Briefly, NIH:OVCAR-5 cells that natively express a moderate amount of nectin 4 protein were incubated for 30 minutes in 150 μg/mL of soluble peptide in DMSO. After incubation, the cells were washed, and then triple antibody stained using mouse anti-nectin 4 (or IgG control) primary antibody, biotinylated goat anti-mouse secondary antibody, and streptavidin APC tertiary antibody. Finally, utilizing the University of Minnesota flow core's Accuri C6 flow cytometer, the relative antibody binding affinity for control and peptide-treated samples was quantitated and compared. Data was collected for each of the 57 peptides generated.

[2] = system: ovarian cancer cell aggregation and spheroid formation; experiment: Spheroid assay for peptides (visual scale +1 to +5); assay type: cell-based, human; conditions: visual scale of +1 to +5; for Spheroid-24: 24 hrs, Control = 2; for Spheroid-48: 48 hrs, Control = 4
Description: Spheroids were formed from the NIH:OVCAR5 cell lines described above using the liquid overlay method. One milliliter of a single cell suspension was seeded at a concentration of 50,000 cells/ml in OptiMEM® media, into 24-well tissue culture plates coated with 0.5% Seakem agarose (in complete RPMI-1640). Plates were incubated at 37° C. in a humidified incubator with 5% CO2. At various time points up to 5 days, the plates were removed from the incubator and the spheroids were photographed with a Nikon CoolPix digital camera mounted on an Olympus CK2 inverted microscope with a 4× objective. The size of the spheroids was determined using the measure tool in Adobe Photoshop. The largest spheroids were quantified (20-90 spheroids/well), in a minimum of 8 wells, for a total of >300 spheroids per cell type.
The clinical relevance is that by blocking the formation of spheroids, the cells will be more sensitive to chemotherapy (which targets the single cells that proliferate more rapidly than spheroids).
The spheroid assay for peptides 1-30 were scored using a visual scale of +1 to +5. The controls were scored at +2 (24 hrs) and +4 (48 hrs). […] It may be harder to visually assess the size at 24 hours, since the spheroids are relatively small, but and perhaps some of the peptides are affecting cell division, and that is why the spheroids are smaller than the controls at 48 hours, but not 24 hrs (this can be easily assayed with an MTT assay).

[3] = Run Three, 150 μg/mL peptide, 30 minutes, Control 3 = 13,070.20
[4] = Run Three, antibody binding relative to Control 3 = 100.00
[5] = Run One, 150 μg/mL peptide, 30 minutes, Control 1 = 15,015
[6] = Run One, 150 μg/mL peptide, 30 minutes, Control 1 = 1,670
[7] = Run One, antibody binding relative to Control 1 = 100.00
[8] = Run Five, 150 μg/mL peptide, 30 minutes, Control 5 = 17,768.90
[9] = Run Five, Control 5 = 2.142155332
[10] = Run Five, antibody binding relative to Control 5 = 100
[11] = Run Four, 150 μg/mL peptide, 30 minutes, Control 4 = 9,631.58
[12] = Run Four, Control 4 = 9.387504873
[13] = Run Four, antibody binding relative to Control 4 = 100

## NVAIYNPSMGVSVL-NH2 (listed as Homo sapiens) [Peptide 34]
[1]; [3]
  N4 MFI: 14,542.93
[1]; Run Three, Control 3 = 9.83
  N4 MFI/IgG MFI: 9.77
[1]; Run Three, Control 3 = 1330
  IgG MFI: 1489
[1]; [4]
  nectin-4 antibody binding, percent of control: 111.19
[1]; 150 μg/mL peptide
  nectin-4 antibody binding compared to untreated control cells (in words): increased nectin-4 antibody binding
[1]
  Flow binding: 112%

## ICEFATFPTGNRES-NH2 (listed as Homo sapiens) [Peptide 38]
[1]; [3]
  N4 MFI: 12,128.26
[1]; Run Three, Control 3 = 9.83
  N4 MFI/IgG MFI: 7.73
[1]; Run Three, Control 3 = 1330
  IgG MFI: 1568
[1]; [4]
  nectin-4 antibody binding, percent of control: 89.95
[2]
  Spheroid-24: 1
  Spheroid-48: 3

## TNWIEGTQAVLRAKKGQ-NH2 (listed as Homo sapiens) [Peptide 40]
[1]; [3]
  N4 MFI: 10,121.20
[1]; Run Three, Control 3 = 9.83
  N4 MFI/IgG MFI: 7.11
[1]; Run Three, Control 3 = 1330
  IgG MFI: 1423
[1]; [4]
  nectin-4 antibody binding, percent of control: 74.09

## VVLGQDAKLPCFYR-NH2 (listed as Homo sapiens) [Peptide 2]
[1]; [5]
  N4 MFI: 11,895
[1]; [6]
  IgG MFI: 2,458
[1]; Run One, Control 1 = 8.99
  N4 MFI/IgG MFI: 4.84
[1]; [7]
  nectin-4 antibody binding, percent of control: 70.72
[2]
  Spheroid-48: 3

## HGRRAGPVPTA-NH2 (listed as Homo sapiens) [Peptide 56]
[1]; [8]
  N4 MFI: 21,060.14
[1]; [9]
  N4 MFI/IgG MFI: 2.035
[1]; Run Five, Control 5 = 8,294.87
  IgG MFI: 10,346.61
[1]; [10]
  nectin-4 antibody binding, percent of control: 113.1
[2]
  Spheroid-48: 3

## HSQVVQVNDSMYGF-NH2 (listed as Homo sapiens) [Peptide 30]
[1]; Run Two, 150 μg/mL peptide, 30 minutes, Control 2 = 49,491
  N4 MFI: 205,442
[1]; Run Two, Control 2 = 9.46
  N4 MFI/IgG MFI: 3.24
[1]; Run Two, Control 2 = 5,233
  IgG MFI: 63,394
[1]; Run Two, antibody binding relative to Control 2 = 100.00
  nectin-4 antibody binding, percent of control: 320.95
[1]; 150 μg/mL peptide
  nectin-4 antibody binding compared to untreated control cells (in words): erroneous/outlier due to solubility issues
[1]
  Flow binding: 321%
[2]
  Spheroid-48: 3

## EVKGTTSSRSFKHS-NH2 (listed as Homo sapiens) [Peptide 14]
[1]; [5]
  N4 MFI: 13,217
[1]; [6]
  IgG MFI: 3,125
[1]; Run One, Control 1 = 8.99
  N4 MFI/IgG MFI: 4.23
[1]; [7]
  nectin-4 antibody binding, percent of control: 75.62
[2]
  Spheroid-24: 1
  Spheroid-48: 2

## NYSLAGTYICEATN-NH2 (listed as Homo sapiens) [Peptide 53]
[1]; [8]
  N4 MFI: 40,909.47
[1]; [9]
  N4 MFI/IgG MFI: 1.37
[1]; Run Five, Control 5 = 8,294.87
  IgG MFI: 29,864.47
[1]; [10]
  nectin-4 antibody binding, percent of control: 116.6

## QRITHILHVSFLAE-NH2 (listed as Homo sapiens) [Peptide 18]
[2]
  Spheroid-24: 3
  Spheroid-48: 5

## CKADANPPATEYHWT-NH2 (listed as Homo sapiens) [Peptide 50]
[1]; [11]
  N4 MFI: 11,341.38
[1]; [12]
  N4 MFI/IgG MFI: 4.306
[1]; Run Four, Control 4 = 1,026
  IgG MFI: 2634
[1]; [13]
  nectin-4 antibody binding, percent of control: 101.2

## WTTLNGSLPKGVEA-NH2 (listed as Homo sapiens) [Peptide 51]
[1]; [8]
  N4 MFI: 14,202.55
[1]; [9]
  N4 MFI/IgG MFI: 1.539
[1]; Run Five, Control 5 = 8,294.87
  IgG MFI: 9,230.44
[1]; [10]
  nectin-4 antibody binding, percent of control: 52.48
[1]; 150 μg/mL peptide
  nectin-4 antibody binding compared to untreated control cells (in words): reduction in nectin-4 antibody binding
[1]
  Flow binding: 53%

## LSRLELEDEGVYIC-NH2 (listed as Homo sapiens) [Peptide 37]
[1]; [3]
  N4 MFI: 46,393.69
[1]; Run Three, Control 3 = 9.83
  N4 MFI/IgG MFI: 11.38
[1]; Run Three, Control 3 = 1330
  IgG MFI: 4078
[1]; [4]
  nectin-4 antibody binding, percent of control: 360.43

## VLAPYRERVEFLRP-NH2 (listed as Homo sapiens) [Peptide 35]
[1]; [3]
  N4 MFI: 15,767.33
[1]; Run Three, Control 3 = 9.83
  N4 MFI/IgG MFI: 8.59
[1]; Run Three, Control 3 = 1330
  IgG MFI: 1835
[1]; [4]
  nectin-4 antibody binding, percent of control: 118.67
[1]; 150 μg/mL peptide
  nectin-4 antibody binding compared to untreated control cells (in words): increased nectin-4 antibody binding
[1]
  Flow binding: 119%

## GQGLTLAASCTAEG-NH2 (listed as Homo sapiens) [Peptide 12]
[1]; [5]
  N4 MFI: 11,052
[1]; [6]
  IgG MFI: 2,827
[1]; Run One, Control 1 = 8.99
  N4 MFI/IgG MFI: 3.91
[1]; [7]
  nectin-4 antibody binding, percent of control: 61.63

## VNITEFPYTPSPPEHGRRA-NH2 (listed as Homo sapiens) [Peptide 55]
[1]; [8]
  N4 MFI: 19,498.24
[1]; [9]
  N4 MFI/IgG MFI: 2.29
[1]; Run Five, Control 5 = 8,294.87
  IgG MFI: 8,512.75
[1]; [10]
  nectin-4 antibody binding, percent of control: 116

## NGKPPSVVSWETRL-NH2 (listed as Homo sapiens) [Peptide 42]
[1]; [11]
  N4 MFI: 9,416.50
[1]; [12]
  N4 MFI/IgG MFI: 7.497
[1]; Run Four, Control 4 = 1,026
  IgG MFI: 1256
[1]; [13]
  nectin-4 antibody binding, percent of control: 94.83

## GFIGTDVVLHCSFA-NH2 (listed as Homo sapiens) [Peptide 31]
[1]; [3]
  N4 MFI: 15,498.21
[1]; Run Three, Control 3 = 9.83
  N4 MFI/IgG MFI: 8.83
[1]; Run Three, Control 3 = 1330
  IgG MFI: 1756
[1]; [4]
  nectin-4 antibody binding, percent of control: 117.05
[1]; 150 μg/mL peptide
  nectin-4 antibody binding compared to untreated control cells (in words): increased nectin-4 antibody binding
[1]
  Flow binding: 117%

## ACIVNYHMDRFKES-NH2 (listed as Homo sapiens) [Peptide 46]
[1]; [11]
  N4 MFI: 10,569.90
[1]; [12]
  N4 MFI/IgG MFI: 6.623
[1]; Run Four, Control 4 = 1,026
  IgG MFI: 1596
[1]; [13]
  nectin-4 antibody binding, percent of control: 104.3

## TWQKSTNGSKQNV-NH2 (listed as Homo sapiens) [Peptide 33]
[1]; [3]
  N4 MFI: 10,425.01
[1]; Run Three, Control 3 = 9.83
  N4 MFI/IgG MFI: 8.31
[1]; Run Three, Control 3 = 1330
  IgG MFI: 1255
[1]; [4]
  nectin-4 antibody binding, percent of control: 78.11

## ESQLNLTVMAKPTN-NH2 (listed as Homo sapiens) [Peptide 39]
[1]; [3]
  N4 MFI: 8,719.33
[1]; Run Three, Control 3 = 9.83
  N4 MFI/IgG MFI: 4.24
[1]; Run Three, Control 3 = 1330
  IgG MFI: 2056
[1]; [4]
  nectin-4 antibody binding, percent of control: 56.76
[1]; 150 μg/mL peptide
  nectin-4 antibody binding compared to untreated control cells (in words): reduction in nectin-4 antibody binding
[1]
  Flow binding: 57%

## PAGELETSDVVTVV-NH2 (listed as Homo sapiens) [Peptide 1]
[1]; [5]
  N4 MFI: 2,085
[1]; [6]
  IgG MFI: 1,529
[1]; Run One, Control 1 = 8.99
  N4 MFI/IgG MFI: 1.36
[1]; [7]
  nectin-4 antibody binding, percent of control: 4.17
[1]; 150 μg/mL peptide
  nectin-4 antibody binding compared to untreated control cells (in words): reduction in nectin-4 antibody binding

## TNPIGTRSGQVEVN-NH2 (listed as Homo sapiens) [Peptide 54]
[1]; [8]
  N4 MFI: 19,706.27
[1]; [9]
  N4 MFI/IgG MFI: 2.253
[1]; Run Five, Control 5 = 8,294.87
  IgG MFI: 8,747.26
[1]; [10]
  nectin-4 antibody binding, percent of control: 115.7
